The record followed here is patent publication US7741479B2, “Urea inhibitors of MAP kinases” (Locus Pharmaceuticals, Inc., priority 2004, dated 2010).

The test addresses T1, p38 (Homo sapiens, UniProt Q16539).
T1 construct: made in house
Kind of test: Protein Kinase Assay (33P incorporation from γ-[33P]ATP into GST-ATF-2 substrate). The settings on record: for inhibition at 10 µM: compound at 10 μM. The class given is biochemical. The gist of the method:
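Non-activated human p38 (10 nM) was preincubated with compounds for 20 min at 30° C, then GST-ATF-2 (aa 19-96) and γ-[33P]ATP were added for 70 min at 30° C. Reactions were stopped with phosphoric acid; phosphorylated substrate was captured on phosphocellulose and scintillation-counted.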

[1] abbreviates: compound at 3 μM (noted beside the value in Table 1), read-out: Protein Kinase (% Inhibition).

Each structure is given as a SMILES string. Like-named read-outs stand apart in the source and are kept apart here.

T1 sequence (Q16539 whole entry): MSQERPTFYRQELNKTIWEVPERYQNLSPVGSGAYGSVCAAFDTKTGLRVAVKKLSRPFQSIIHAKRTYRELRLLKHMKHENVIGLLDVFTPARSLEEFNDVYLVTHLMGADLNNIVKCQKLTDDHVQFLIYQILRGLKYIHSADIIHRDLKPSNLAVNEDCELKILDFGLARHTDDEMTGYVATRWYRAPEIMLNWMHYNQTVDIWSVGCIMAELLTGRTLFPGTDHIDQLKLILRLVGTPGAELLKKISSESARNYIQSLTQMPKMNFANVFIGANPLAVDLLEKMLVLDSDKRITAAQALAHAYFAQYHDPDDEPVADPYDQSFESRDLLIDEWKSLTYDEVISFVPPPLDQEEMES

One may read the inhibition as the change of the read-out against control, counted positive when it falls. For `CC(C)(C)c1cc(C(=O)N2CC[S@SP2](=O)(=O)CC2)c(NC(=O)Nc2ccc(Br)c3ccccc23)s1` [Example 40, 1-(4-Bromonaphthalen-1-yl)-3-[5-tert-butyl-3-(1,1-dioxo-1λ^6-thiomorpholine-4-carbonyl)thiophen-2-yl]urea], under setting [1], the inhibition at 3 µM lay within 76 to 100%.

On to `CC(C)(C)c1cc(C(=O)Nc2cccnc2)c(NC(=O)Nc2ccc(Cl)cc2)s1` [Example 75, 1-(3-(Pyridin-3-ylcarbamoyl)-5-tert-butylthiophen-2-yl)-3-(4-chlorophenyl)urea], for which the inhibition at 3 µM (compound at 3 μM, read-out: Protein Kinase (% Inhibition at 3 μM)) was in the range of 76 to 100%.

`CC(C)(C)c1cc(C(=O)N2CCS(=O)(=O)CC2)c(NC(=O)Nc2cccc3cn[nH]c23)s1` [Example 32, 1-[5-tert-butyl-3-(1,1-dioxo-1λ^6-thiomorpholine-4-carbonyl)thiophen-2-yl]-3-(1H-indazol-7-yl)urea]: the inhibition at 10 µM was in the range of 26 to 50%.

On to `CC(C)(C)c1nc(C(=O)N2CCS(=O)(=O)CC2)c(NC(=O)Nc2cccc3ccccc23)s1` [Example 25, 1-[2-tert-butyl-4-(1,1-dioxo-1λ^6-thiomorpholine-4-carbonyl)thiazol-5-yl]-3-naphthalen-1-ylurea], for which the inhibition at 10 µM lay in the range of 76 to 100%.

Regarding `CC(C)(C)c1cc(C(=O)N2CCS(=O)(=O)CC2)c(NC(=O)Nc2ccc(C#N)c3ccccc23)s1` [Example 43, 1-[5-tert-butyl-3-(1,1-dioxo-1λ^6-thiomorpholine-4-carbonyl)thiophen-2-yl]-3-(4-cyanonaphthalen-1-yl)urea], under setting [1], the inhibition at 3 µM lay within 76 to 100%.
